Measurements published in patent EP1053246B1, “BETA-SHEET MIMETICS AND METHODS RELATING TO THE USE THEREOF” (MOLECUMETICS, LTD., priority 1998, dated 1999).
Where two headings read alike, the source gives them in different places.

What was measured:
[1] = target: T1, bovine factor Xa (Bos taurus, UniProt P00743); assay: Factor X inhibition assay (IC50, Example 4); format: biochemical; conditions: Factor X; read-out: IC50
T1 construct: bovine factor Xa (from Sigma); purchased Sigma
Protocol: All inhibition assays of this experiment were performed at room temperature in 96 well microplates using a Bio-Rad microplate reader (Model 3550). […] This solution (2.05 mM) served as the stock solution for all the inhibition assays. The hydrolysis of chromogenic substrates was monitored at 405 nm. The reaction progress curves were recorded by reading the plates typically 90 times with 30 seconds to 2 minute intervals. The initial rate were determined by unweighted nonlinear least-squares fitting to a first order reaction in GraFit.
In the Factor X assay, buffer and substrate are the same as used for thrombin assay. A 1:100 dilution was made into pH 8.4 Tris buffer to serve as the first point. Seven dilutions with a dilution factor of 2 were made. The assay protocol is the same as for thrombin except 25 nM of bovine factor Xa (from Sigma) in pH 8.4 Tris buffer was used instead of thrombin.

[2] = test system: control plasma; assay: prothrombin time (PT) in control plasma; format: biochemical
Protocol: Then 200 µl of prewarmed (at 37°C for ∼10 minutes) thromboplastin with calcium (from Sigma) was rapidly added into the plasma sample. […]

[3] = test system: thioredoxin; assay: block of insulin disulfide reduction by thioredoxin (turbidity at 650 nm); format: biochemical; conditions: 8 µM thioredoxin, 0-100 µM compound, 60 minutes
[4] = target: T2, factor VII (Homo sapiens, UniProt P08709); assay: Factor VII inhibition assay (Ki, Example 5); format: biochemical
T2 construct: human Factor VIIa (FVIIa)
T2 sequence (P08709 61-212 limits assumed): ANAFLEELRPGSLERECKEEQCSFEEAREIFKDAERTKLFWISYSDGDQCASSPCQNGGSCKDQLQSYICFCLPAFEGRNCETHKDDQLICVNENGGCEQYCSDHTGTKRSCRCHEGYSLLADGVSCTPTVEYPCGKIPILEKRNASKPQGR
T2 sequence (P08709 213-466 limits assumed): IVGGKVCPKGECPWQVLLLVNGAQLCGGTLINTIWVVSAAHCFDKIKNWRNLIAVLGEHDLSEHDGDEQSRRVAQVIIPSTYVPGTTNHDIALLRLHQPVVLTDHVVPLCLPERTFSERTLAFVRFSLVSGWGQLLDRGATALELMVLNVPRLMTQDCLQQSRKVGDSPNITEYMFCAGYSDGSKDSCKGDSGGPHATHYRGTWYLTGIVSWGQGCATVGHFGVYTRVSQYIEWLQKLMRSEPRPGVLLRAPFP
Protocol: (§1) The reaction progress curves were recorded by reading the plates, typically 60 times with 30 second to 2 minute intervals. Initial rates were determined by unweighted nonlinear least-squares fitting to a first order reaction in GraFit (Erithacus Software Limited, London, England).
From this concentration point seven more sequential dilutions were made for the assay.

[5] = target: T3, factor X (Bos taurus, UniProt P00743); assay: Factor X inhibition assay (Ki, Example 5), bovine plasma enzyme; format: biochemical; conditions: footnote e: bovine plasma
T3 construct: bovine factor Xa (from Sigma); from tissue; host or cells: bovine plasma
T3 sequence (P00743 41-180 limits assumed): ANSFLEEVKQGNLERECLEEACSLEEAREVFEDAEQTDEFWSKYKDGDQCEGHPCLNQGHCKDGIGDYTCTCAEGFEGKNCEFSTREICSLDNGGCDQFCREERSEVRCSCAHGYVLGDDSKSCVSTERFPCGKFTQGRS
T3 sequence (P00743 234-492 limits assumed): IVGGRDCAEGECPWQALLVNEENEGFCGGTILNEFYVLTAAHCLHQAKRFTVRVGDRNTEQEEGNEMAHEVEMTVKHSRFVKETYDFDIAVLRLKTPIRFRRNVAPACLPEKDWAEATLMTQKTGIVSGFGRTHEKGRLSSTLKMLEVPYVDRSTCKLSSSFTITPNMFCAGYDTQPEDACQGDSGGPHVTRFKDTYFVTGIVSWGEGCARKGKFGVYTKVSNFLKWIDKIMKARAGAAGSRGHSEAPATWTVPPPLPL
Protocol: All inhibition assays were performed at room temperature in 96 well microplates using Bio-Rad microplate reader (Model 3550). […] The hydrolysis of chromogenic substrates was monitored at 405 nm. The reaction progress curves were recorded by reading the plates, typically 60 times with 30 second to 2 minute intervals. Initial rates were determined by unweighted nonlinear least-squares fitting to a first order reaction in GraFit (Erithacus Software Limited, London, England).
Factor X: Buffer and substrate were the same as used for thrombin assay. A 1:100 dilution was made -in the pH8.0 tris buffer to serve as the first point. Seven more dilutions from the first were made for the assay.

[6] = target: T4, trypsin (Bos taurus, UniProt P00760); assay: trypsin inhibition assay (Ki, Example 5); format: biochemical, bovine pancreas
T4 construct: from tissue; host or cells: bovine pancreas
T4 sequence (P00760 24-246): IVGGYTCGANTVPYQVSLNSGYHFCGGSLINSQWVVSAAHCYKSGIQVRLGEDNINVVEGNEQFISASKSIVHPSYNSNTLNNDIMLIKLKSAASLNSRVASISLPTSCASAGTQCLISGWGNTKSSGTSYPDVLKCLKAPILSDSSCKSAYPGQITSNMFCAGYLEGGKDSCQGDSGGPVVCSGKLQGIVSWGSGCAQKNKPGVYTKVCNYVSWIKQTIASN
Protocol: as §1

[7] = target: Factor XI (Homo sapiens, UniProt P03951); assay: Factor XI inhibition assay (Ki); format: biochemical
Factor XI, sequence (P03951 388-625 limits assumed): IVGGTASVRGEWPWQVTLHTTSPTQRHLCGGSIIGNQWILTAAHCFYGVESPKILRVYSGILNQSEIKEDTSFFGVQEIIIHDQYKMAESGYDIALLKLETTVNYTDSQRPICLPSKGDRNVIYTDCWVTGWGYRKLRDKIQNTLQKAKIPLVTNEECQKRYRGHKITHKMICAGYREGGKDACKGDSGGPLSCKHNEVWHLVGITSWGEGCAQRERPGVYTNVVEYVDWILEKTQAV
Factor XI, sequence (P03951 19-387 limits assumed): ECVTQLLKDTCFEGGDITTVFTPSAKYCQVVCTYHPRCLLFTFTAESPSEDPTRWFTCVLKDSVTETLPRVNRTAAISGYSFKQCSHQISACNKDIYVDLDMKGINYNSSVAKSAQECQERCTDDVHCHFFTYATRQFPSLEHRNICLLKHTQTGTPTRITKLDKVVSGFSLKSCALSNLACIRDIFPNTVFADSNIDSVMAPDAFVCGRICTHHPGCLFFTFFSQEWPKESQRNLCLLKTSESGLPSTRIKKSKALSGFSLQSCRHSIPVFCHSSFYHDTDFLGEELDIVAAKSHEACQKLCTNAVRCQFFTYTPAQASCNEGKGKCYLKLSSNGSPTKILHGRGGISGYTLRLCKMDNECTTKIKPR

[8] = target: thrombin (Bos taurus, UniProt P00735); assay: thrombin inhibition assay (Ki, Example 5); format: biochemical, bovine plasma; parameters: Thrombin: N-p-tosyl-Gly-Pro-Arg-pNA (from Sigma) was used at 0.5 mM concentration; from tissue; host or cells: bovine plasma
Protocol: as §1
Seven sequential dilutions were made from the first point for the assay.

[9] = target: tryptase; assay: tryptase inhibition assay (Ki, Example 5); format: biochemical, human lung
Protocol: as §1
Tryptase: 0.1 M tris, 0.2 M NaCl, 0.1 mg/ml heparin, pH=8.0 was utilized as buffer. […] From this point seven more dilutions were made for the assay.

[10] = test system: Factor X; assay: Factor X inhibition assay (Ki), source of enzyme not stated; format: biochemical; conditions: ratio of Ki of an enzyme to the Ki of thrombin
[11] = target: t-PA (Homo sapiens, UniProt P00750); assay: t-PA inhibition assay (Ki, Example 5); format: biochemical
t-PA, sequence (P00750 36-562): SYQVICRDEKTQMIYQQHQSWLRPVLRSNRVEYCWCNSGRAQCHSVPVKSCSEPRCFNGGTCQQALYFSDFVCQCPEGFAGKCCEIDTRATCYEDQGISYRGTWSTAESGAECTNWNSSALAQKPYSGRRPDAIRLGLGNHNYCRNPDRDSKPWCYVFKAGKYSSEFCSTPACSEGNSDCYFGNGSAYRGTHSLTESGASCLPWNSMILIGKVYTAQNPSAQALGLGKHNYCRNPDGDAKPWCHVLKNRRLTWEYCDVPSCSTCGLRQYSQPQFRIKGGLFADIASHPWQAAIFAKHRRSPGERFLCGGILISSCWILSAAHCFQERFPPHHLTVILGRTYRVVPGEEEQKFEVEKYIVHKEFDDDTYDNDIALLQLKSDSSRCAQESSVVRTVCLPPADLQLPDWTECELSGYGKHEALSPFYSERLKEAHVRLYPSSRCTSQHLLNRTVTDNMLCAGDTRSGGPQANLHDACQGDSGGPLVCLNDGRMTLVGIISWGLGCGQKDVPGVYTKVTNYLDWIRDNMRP
Protocol: as §1

[12] = target: T5, APC (Homo sapiens, UniProt P04070); assay: activated protein C inhibition assay (Ki, Example 5); format: biochemical, human plasma
T5 construct: from tissue; host or cells: human plasma
T5 sequence (P04070 43-197 limits assumed): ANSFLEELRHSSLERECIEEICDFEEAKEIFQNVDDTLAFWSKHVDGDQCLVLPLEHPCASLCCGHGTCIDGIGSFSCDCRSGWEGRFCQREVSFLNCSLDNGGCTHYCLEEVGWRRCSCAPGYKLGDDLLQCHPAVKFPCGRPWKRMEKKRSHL
T5 sequence (P04070 212-461 limits assumed): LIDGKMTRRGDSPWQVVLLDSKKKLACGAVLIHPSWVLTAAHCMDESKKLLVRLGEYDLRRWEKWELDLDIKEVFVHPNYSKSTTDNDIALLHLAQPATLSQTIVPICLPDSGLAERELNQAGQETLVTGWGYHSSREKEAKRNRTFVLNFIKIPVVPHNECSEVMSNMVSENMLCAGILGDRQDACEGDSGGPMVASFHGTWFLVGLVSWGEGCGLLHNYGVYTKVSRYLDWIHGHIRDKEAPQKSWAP

[13] = target: thrombin-thrombomodulin complex (Bos taurus, UniProt P00735); assay: thrombin-thrombomodulin complex inhibition assay (Ki); format: biochemical; conditions: thrombin preincubated with 4 nM thrombomodulin, read-out: Ki (M) T.T.C.
[14] = target: Plasmin (Bos taurus, UniProt P06868); assay: plasmin inhibition assay (Ki, Example 5); format: biochemical, bovine plasma; parameters: Plasmin: Buffer (see thrombin assay); from tissue; host or cells: bovine plasma
Plasmin, sequence (P06868 104-583 limits assumed): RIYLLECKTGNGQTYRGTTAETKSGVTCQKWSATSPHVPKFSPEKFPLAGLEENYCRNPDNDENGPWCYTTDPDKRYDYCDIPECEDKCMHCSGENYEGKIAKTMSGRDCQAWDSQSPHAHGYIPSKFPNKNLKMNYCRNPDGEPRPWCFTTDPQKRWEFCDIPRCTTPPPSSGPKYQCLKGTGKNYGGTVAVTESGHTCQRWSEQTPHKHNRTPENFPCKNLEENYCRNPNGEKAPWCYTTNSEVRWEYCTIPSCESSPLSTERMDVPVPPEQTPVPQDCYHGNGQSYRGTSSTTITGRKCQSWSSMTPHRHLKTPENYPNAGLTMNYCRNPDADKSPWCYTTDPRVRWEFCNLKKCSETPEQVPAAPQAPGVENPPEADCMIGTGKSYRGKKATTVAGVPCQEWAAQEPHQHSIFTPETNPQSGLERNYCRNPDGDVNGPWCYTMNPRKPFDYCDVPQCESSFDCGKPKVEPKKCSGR
Plasmin, sequence (P06868 584-812 limits assumed): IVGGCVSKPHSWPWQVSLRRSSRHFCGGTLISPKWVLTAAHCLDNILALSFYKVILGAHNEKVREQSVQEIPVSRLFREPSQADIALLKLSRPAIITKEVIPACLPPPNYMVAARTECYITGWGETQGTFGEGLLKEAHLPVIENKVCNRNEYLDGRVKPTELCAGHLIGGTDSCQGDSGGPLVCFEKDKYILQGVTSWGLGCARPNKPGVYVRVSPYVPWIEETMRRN
Protocol: as §1

[15] = target: T6, bovine thrombin (Bos taurus, UniProt P00735); assay: thrombin assay: hydrolysis of the mimetic as proteolytic substrate; format: biochemical
T6 construct: bovine thrombin (from Sigma); purchased Sigma
Protocol: (§2) Both the thrombin and Factor VII assays of this experiment were carried out at 37°C using a Hitachi UV/Vis spectrophotometer (model U-3000). Structure (11b) was dissolved in deionized water. The concentration was determined from the absorbance at 342 nm. […] Initial velocities were calculated from the initial linear portion of the reaction progress curve. Kinetic parameters were determined by unweighted nonlinear least-squares fitting of the simple Michaelis-Menten equation to the experimental data using GraFit (Version 3.0, Erithacus Software Limited).
For the thrombin assay, experiments were performed in pH 8.4 Tris buffer (Tris, 0.05M; NaCl, 0.15M). 6.4 NIH units of bovine thrombin (from Sigma) were dissolved into 10 ml of the assay buffer to yield 10 nM thrombin solution. […] The first two minutes of the reactions were recorded for initial velocity determination.
(§3) In both the thrombin and Factor VII assay of this experiment, (D)FPR-PNA was run as a control.

[16] = target: T7, human Factor VIIa (FVIIa) (Homo sapiens, UniProt P08709); assay: Factor VII assay: hydrolysis of the mimetic as proteolytic substrate; format: biochemical; conditions: relative to (D)FPR-PNA control
T7 construct: human Factor VIIa (FVIIa)
T7 sequence (P13726 33-295 partner, one chain of several): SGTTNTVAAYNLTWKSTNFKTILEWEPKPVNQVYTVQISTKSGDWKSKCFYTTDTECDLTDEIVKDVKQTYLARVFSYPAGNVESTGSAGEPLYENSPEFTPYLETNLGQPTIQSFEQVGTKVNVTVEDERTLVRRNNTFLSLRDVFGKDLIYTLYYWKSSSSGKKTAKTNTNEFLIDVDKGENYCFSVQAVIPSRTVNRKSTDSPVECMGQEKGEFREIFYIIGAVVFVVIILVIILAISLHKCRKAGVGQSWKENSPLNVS
Protocol: as §2
For the Factor VII assay, pH 8.0 Tris buffer (0.05 M Tris, 5 mM CaCl2, 0.15 M NaCl, 0.1% TWEEN 20, 0.1% BSA) was used. 10 µl of 20 µM human Factor VIIa (FVIIa) and 22 µM of human tissue factor (TF) was brought to assay buffer to make 160 nM FVIIa and TF solutions, respectively. […] The initial 3 minutes reaction progress curves were recorded. […] The kcat/KM was calculated from the slope and found to be 17,500 M^-1s^-1.
as §3

[17] = target: thermolysin (Bacillus thermoproteolyticus, UniProt P00800); assay: thermolysin inhibition assay; format: biochemical
thermolysin, sequence (P00800 233-548, species assumed): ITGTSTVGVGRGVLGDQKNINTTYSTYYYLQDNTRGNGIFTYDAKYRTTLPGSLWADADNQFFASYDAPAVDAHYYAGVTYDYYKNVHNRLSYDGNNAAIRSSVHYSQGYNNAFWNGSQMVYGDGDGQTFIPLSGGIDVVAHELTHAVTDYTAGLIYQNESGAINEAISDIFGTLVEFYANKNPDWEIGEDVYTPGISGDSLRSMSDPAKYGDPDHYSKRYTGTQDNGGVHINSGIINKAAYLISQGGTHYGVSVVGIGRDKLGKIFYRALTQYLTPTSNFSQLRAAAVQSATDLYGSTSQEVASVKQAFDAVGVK

[18] = target: T8, leucine aminopeptidase M (Sus scrofa, UniProt P15145); assay: leucine aminopeptidase M inhibition assay; format: biochemical
T8 construct: purchased Sigma
T8 sequence (P15145 whole entry): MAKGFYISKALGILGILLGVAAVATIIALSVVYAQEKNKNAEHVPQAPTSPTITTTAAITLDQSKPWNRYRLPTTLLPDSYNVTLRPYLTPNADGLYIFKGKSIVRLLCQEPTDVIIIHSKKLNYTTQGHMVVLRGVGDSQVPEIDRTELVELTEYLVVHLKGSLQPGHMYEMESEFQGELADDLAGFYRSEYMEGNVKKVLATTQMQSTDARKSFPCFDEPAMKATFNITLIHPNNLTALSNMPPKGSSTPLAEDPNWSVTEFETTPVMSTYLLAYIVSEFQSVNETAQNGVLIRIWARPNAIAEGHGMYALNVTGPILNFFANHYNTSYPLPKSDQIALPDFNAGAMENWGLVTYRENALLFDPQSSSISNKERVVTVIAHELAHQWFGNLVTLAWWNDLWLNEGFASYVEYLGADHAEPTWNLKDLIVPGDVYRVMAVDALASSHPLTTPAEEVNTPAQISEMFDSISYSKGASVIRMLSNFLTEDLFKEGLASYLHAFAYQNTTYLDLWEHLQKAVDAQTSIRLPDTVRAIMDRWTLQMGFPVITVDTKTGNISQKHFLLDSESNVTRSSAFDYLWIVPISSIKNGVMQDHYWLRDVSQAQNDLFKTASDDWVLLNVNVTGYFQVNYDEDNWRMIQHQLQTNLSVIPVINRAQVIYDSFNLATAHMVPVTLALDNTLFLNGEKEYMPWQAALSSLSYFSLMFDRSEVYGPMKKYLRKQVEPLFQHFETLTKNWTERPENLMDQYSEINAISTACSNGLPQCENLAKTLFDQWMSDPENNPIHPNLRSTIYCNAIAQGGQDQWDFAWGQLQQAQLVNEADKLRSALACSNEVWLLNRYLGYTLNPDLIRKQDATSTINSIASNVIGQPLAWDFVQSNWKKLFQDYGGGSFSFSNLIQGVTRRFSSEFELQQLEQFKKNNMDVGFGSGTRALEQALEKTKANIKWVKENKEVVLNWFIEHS

[19] = target: papain (Carica papaya, UniProt P00784); assay: papain inhibition assay
papain, sequence (P00784 134-345): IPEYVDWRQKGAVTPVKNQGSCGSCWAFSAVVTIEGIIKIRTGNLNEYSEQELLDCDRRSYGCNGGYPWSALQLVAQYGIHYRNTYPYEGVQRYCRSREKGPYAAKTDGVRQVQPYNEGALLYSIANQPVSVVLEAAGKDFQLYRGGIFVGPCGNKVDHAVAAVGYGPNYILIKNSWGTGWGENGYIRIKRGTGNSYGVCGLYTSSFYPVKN

[20] = substrate hydrolysis, pH 8.4 Tris buffer, 37°C

T1 sequence (P00743 41-180 limits assumed): as the sequence (P00743 41-180 limits assumed) above
T1 sequence (P00743 234-492 limits assumed): as the sequence (P00743 234-492 limits assumed) above

N=C(N)NCCC[C@H](NC(=O)[C@@H]1CCN2CC[C@@](N)(Cc3ccccc3)C(=O)N12)C(=O)CCl [(13b)]
IC50 [1]: 385 ± 17 nM | PT ([2]; Concentration 1 pM): 13 s | PT ([2]; Concentration 10 pM): 17 s | PT ([2]; Concentration 50 pM): 18 s | PT ([2]; Concentration 100 pM): 23 s | PT ([2]; Concentration 200 pM): 24 s | PT ([2]; Concentration 500 pM): 27 s | PT ([2]; Concentration 1 nM): 30 s | PT ([2]; Concentration 10 nM): 31 s | PT ([2]; Concentration 30 nM): 31 s | PT ([2]; Concentration 50 nM): 30 s | PT ([2]; Concentration 80 nM): 33 s

CC1=C2[C@H]3OC(=O)[C@@H](C)[C@@H]3CC[C@@]2(C)C=CC1=O [Santonin]
thioredoxin-induced turbidity of insulin [3]: did not block thioredoxin-induced turbidity of insulin

N=C(N)NCCC[C@H](NC(=O)[C@@H]1CCN2CC[C@@](N)(Cc3ccccc3)C(=O)N12)C(=O)c1nccs1 [Structure (47)]
Ki [4]: 968 nM | Ki [5]: 1500 nM | Ki [6]: 1.9 nM

N=C(N)NC(=O)NC[C@H](NC(=O)[C@@H]1CCN2CC[C@@](N)(Cc3ccccc3)C(=O)N12)C(=O)c1nc2ccccc2s1 [Structure (51)]
Ki [4]: 4260 nM | Ki [6]: 37.9 nM | Ki [7]: 1730 nM | Ki [8]: 7.25 nM

N=C(N)NCCCC(NC(=O)C1CCC2CCC(N)(Cc3ccccc3)C(=O)N21)C(=O)c1nc2ccccc2s1 (stereo not drawn) [Structure (29b)]
Ki ([9]; read-out: Ki (M) Tryptase): 9e-09 M

N=C(N)NCCCC(NC(=O)C1CCC2CCC(N)(Cc3ccccc3)C(=O)N21)C(=O)c1nc2ccccc2s1 (stereo not drawn) [(29b)]
Selectivity ([9]; Tryptase, ratio of Ki of an enzyme to the Ki of thrombin): 106 | Ki ([9]; tryptase, read-out: Ki): 9e-09 M | Selectivity [10]: 227

N=C(N)NCCC[C@H](NC(=O)[C@@H]1CCN2CC[C@@](N)(Cc3ccccc3)C(=O)N12)C(=O)C(=O)NCCc1ccccc1 [Structure (35)]
Ki [4]: 16.4 nM | Ki [5]: 345 nM | Ki [6]: 0.027 nM

N=C(N)NCCC[C@H](NC(=O)[C@@H]1CCN2CC[C@@](N)(Cc3ccccc3)C(=O)N12)C(=O)C(=O)NCCc1ccc(Cl)cc1 [Structure (39)]
Ki [8]: 0.31 nM

COC(=O)c1c[nH]c(C(=O)[C@H](CCCNC(=N)N)NC(=O)[C@@H]2CCN3CC[C@@](N)(Cc4ccccc4)C(=O)N23)n1 [Structure (45)]
Ki [4]: 29600 nM | Ki [11]: 17200 nM | Ki [12]: 25600 nM | Ki ([9]; read-out: Ki (M) Tryptase): 1.65e-06 M | Ki [6]: 52.4 nM | Ki [7]: 1240 nM | Ki [13]: 6.9e-09 M | Ki [14]: 23800 nM | Ki [8]: 5.4 nM

N=C(N)NCCC[C@H](NC(=O)[C@@H]1CCN2CC[C@@](N)(Cc3ccccc3)C(=O)N12)C(=O)Nc1ccc([N+](=O)[O-])cc1 [(11b)]
Km [15, 20]: 3 µM | kcat [15, 20]: 50 s⁻¹ | Activity compared to the control ([15]; thrombin, relative to (D)FPR-PNA control): 0.76 | Activity compared to the control [16]: 1.38

N=C(N)NCCC[C@H](NC(=O)[C@@H]1CCN2CC[C@@](N)(Cc3ccccc3)C(=O)N12)C(=O)C(=O)NCc1ccccc1 [Structure (37)]
Ki [6]: 0.0773 nM | Ki [8]: 0.0732 nM

N=C(N)NCCC[C@H](NC(=O)[C@@H]1CCCN1C(=O)[C@H](N)Cc1ccccc1)C(=O)CCl [PPACK, (D)FPR-CH2Cl, reference compound]
PT ([2]; Concentration 500 pM): 15 s | PT ([2]; Concentration 1 nM): 18 s | PT ([2]; Concentration 10 nM): 22 s | PT ([2]; Concentration 20 nM): 25 s | PT ([2]; Concentration 40 nM): 28 s | PT ([2]; Concentration 60 nM): 30 s | PT ([2]; Concentration 80 nM): 31 s

COC(=O)c1cccc2c1C(=O)N([C@@H](CC(C)C)C(=O)NO)C2=O [Structure (234)]
Ki [17]: 6000 nM | Ki [18]: 11000 nM | IC50 [19]: 8000 nM

COc1ccc(CCNC(=O)C(=O)[C@H](CCCNC(=N)N)NC(=O)[C@@H]2CCN3CC[C@@](N)(Cc4ccccc4)C(=O)N23)cc1 [Structure (41)]
Ki [8]: 0.45 nM
